From ChEMBL document CHEMBL1133866, “Discovery of human CCR5 antagonists containing hydantoins for the treatment of HIV-1 infection” (Bioorg Med Chem Lett, 2001) come the findings set out here.

The term inhibition denotes how much of the control response was suppressed. As usually defined, the IC50 is the concentration that inhibits the measured activity by half. A lower IC50 goes with greater potency in that assay. For orientation: IC95 means the concentration at which the effect reaches the 95% level.

SMILES strings stand for the structures.

Test [1] concerns the target T1, C-C chemokine receptor type 5 (Homo sapiens, UniProt P51681). Briefly: Percent inhibition of the [125I]-MIP-1 alpha binding towards C-C chemokine receptor type 5 stably expressed in Chinese hamster ovary (CHO) cells at a concentration of 1 uM. The class given is cell-based.
Target sequence in this assay (P51681 whole entry, looked up): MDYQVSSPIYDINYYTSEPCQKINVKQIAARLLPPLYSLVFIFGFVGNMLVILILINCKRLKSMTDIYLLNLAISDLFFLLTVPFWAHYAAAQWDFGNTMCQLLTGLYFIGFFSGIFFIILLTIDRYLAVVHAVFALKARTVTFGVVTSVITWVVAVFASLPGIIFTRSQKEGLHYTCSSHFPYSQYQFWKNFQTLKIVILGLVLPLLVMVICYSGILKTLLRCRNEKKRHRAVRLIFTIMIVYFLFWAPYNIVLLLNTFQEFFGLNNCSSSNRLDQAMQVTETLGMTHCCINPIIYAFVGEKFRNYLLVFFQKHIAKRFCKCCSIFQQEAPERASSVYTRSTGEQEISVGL
Test [2] addresses T1, C-C chemokine receptor type 5. Briefly: Percent inhibition of the [125I]-MIP-1 alpha binding towards C-C chemokine receptor type 5 stably expressed in Chinese hamster ovary (CHO) cells at a concentration of 10 uM. The class given is cell-based.
Target sequence in this assay (P51681 whole entry, looked up): as above
The target in test [3] is T2, C-C chemokine receptor type 3 (Homo sapiens, UniProt P51677).
T2 sequence (P51677 whole entry): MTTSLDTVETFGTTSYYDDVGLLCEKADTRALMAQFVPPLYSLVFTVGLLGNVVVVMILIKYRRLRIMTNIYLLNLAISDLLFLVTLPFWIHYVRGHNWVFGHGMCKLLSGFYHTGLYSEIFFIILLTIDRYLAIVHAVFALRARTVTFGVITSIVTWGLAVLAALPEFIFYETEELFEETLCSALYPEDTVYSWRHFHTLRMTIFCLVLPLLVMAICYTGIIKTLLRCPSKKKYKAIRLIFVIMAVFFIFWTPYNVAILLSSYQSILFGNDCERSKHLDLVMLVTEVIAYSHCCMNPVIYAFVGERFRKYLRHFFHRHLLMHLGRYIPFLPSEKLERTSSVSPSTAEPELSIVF
In words: Inhibitory activity against C-C chemokine receptor type 3.

Test [4] deals with T3, C-C chemokine receptor type 1 (Homo sapiens, UniProt P32246).
T3 sequence (P32246 whole entry): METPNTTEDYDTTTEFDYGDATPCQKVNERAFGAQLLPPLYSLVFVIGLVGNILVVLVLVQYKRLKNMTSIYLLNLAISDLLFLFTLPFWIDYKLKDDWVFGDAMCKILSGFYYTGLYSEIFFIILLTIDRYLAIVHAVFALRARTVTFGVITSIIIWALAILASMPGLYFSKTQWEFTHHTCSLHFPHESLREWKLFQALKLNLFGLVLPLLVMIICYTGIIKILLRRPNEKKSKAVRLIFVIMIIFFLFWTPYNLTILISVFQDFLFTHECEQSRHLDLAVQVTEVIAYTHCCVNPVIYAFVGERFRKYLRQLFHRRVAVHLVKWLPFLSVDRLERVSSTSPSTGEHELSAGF
Briefly: Inhibitory activity against C-C chemokine receptor type 1.

For test [5], the target named is C-X-C chemokine receptor type 4 (Homo sapiens, UniProt P61073). Briefly: Inhibitory activity against C-X-C chemokine receptor type 4.
In test [6] the target is T1, C-C chemokine receptor type 5. Briefly: Binding affinity against C-C chemokine receptor type 5 stably expressed in Chinese hamster ovary (CHO) cells using [125I]-MIP-1 alpha as the radioligand. The class given is cell-based.
Target sequence in this assay (P51681 whole entry): as the sequence (P51681 whole entry, looked up) above
Test [7] has as its target T4, C-C chemokine receptor type 4 (Homo sapiens, UniProt P51679).
T4 sequence (P51679 whole entry): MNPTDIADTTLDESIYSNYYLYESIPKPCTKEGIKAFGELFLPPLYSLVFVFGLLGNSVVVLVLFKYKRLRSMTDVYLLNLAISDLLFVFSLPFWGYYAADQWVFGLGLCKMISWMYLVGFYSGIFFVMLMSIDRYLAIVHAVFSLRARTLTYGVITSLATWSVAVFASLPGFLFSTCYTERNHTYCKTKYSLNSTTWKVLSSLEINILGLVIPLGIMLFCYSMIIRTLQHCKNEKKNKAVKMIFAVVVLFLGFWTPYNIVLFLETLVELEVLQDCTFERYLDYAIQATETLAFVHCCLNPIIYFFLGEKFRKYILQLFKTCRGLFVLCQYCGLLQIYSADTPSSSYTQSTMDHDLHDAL
In words: Inhibitory activity against C-C chemokine receptor type 4.

The target of test [8] is C-C chemokine receptor type 2 (Homo sapiens, UniProt P41597). Briefly: Inhibitory activity against C-C chemokine receptor type 2.
The target of test [9] is T1, C-C chemokine receptor type 5. In words: Percent inhibition of the [125I]-MIP-1 alpha binding towards C-C chemokine receptor type 5 stably expressed in Chinese hamster ovary (CHO) cells at a concentration of 1.7 uM. The class given is cell-based.
Target sequence in this assay (P51681 whole entry, looked up): as the sequence (P51681 whole entry, looked up) above
Test [10] relates to Human immunodeficiency virus 1. Briefly: Antiviral activity against HIV-1 viral replication in isolated peripheral blood mononuclear cells (PBMCs). The class given is functional.

Sequence of C-X-C chemokine receptor type 4 (P61073 whole entry): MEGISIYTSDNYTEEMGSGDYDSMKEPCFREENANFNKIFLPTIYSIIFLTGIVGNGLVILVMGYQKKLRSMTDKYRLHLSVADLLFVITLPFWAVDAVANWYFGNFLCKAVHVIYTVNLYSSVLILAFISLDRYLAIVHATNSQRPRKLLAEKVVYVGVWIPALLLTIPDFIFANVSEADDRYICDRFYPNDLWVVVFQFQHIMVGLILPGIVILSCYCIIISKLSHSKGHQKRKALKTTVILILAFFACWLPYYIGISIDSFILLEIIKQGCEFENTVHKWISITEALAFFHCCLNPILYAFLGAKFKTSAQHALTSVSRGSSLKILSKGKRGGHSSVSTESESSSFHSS
Sequence of C-C chemokine receptor type 2 (P41597 whole entry): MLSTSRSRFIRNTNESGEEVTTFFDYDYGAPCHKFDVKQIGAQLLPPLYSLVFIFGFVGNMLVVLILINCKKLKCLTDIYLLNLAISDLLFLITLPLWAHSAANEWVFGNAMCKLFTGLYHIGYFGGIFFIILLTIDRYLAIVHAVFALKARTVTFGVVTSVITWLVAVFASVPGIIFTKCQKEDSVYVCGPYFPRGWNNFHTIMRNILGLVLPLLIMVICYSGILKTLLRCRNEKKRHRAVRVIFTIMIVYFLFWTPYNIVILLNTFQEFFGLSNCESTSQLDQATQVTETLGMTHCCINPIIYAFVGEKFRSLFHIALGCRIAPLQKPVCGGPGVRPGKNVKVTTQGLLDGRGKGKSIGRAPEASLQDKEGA

`O=C1[C@@H](Cc2ccccc2)N(Cc2ccccc2)C(=O)N1CC(CCN1CCC(c2ccccc2)CC1)c1cccc(Cl)c1` (stereo partly drawn) gave an inhibition in [1] of 40%.

On to `O=C1N[C@H](Cc2c[nH]c3ccccc23)C(=O)N1CC(CCN1CCC(c2ccccc2)CC1)c1ccccc1` (stereo in doubt; 22), for which the inhibition in test [1] came out at 71%.

For `O=C1N[C@H](Cc2c[nH]cn2)C(=O)N1CC(CCN1CCC(c2ccccc2)CC1)c1ccccc1` (stereo partly drawn), the inhibition in test [1] amounted to 25%.

In [2], `C[C@H]1NC(=O)N(CC(CCN2CCC(c3ccccc3)CC2)c2cccc(Cl)c2)C1=O` (stereo partly drawn) registered an inhibition of 43%.

In the case of `C=CCN(C(=O)OCc1ccccc1)C1CCN(CCC(C)(CN2C(=O)N[C@H](Cc3c[nH]c4ccccc34)C2=O)c2cccc(Cl)c2)CC1` (stereo partly drawn), the IC50 in test [3] was over 1000 nM; in test [4], over 1000 nM; in test [5], over 1000 nM; in test [6], 32 nM; in test [7], over 1000 nM; in test [8] it was over 1000 nM.

`O=C1CC2(CCN(CCC(CN3C(=O)N[C@H](Cc4ccccc4)C3=O)c3cccc(Cl)c3)CC2)c2ccccc21` (stereo partly drawn) gave an IC50 in test [6] of 200 nM.

As for `CCN(C(=O)OCc1ccccc1)C1CCN(CCC(C)(CN2C(=O)N[C@H](Cc3c[nH]c4ccccc34)C2=O)c2cccc(Cl)c2)CC1` (stereo partly drawn), in [6], the IC50 was 77 nM.

As to `CC(CCN1CCC(c2ccccc2)CC1)(CN1C(=O)N[C@H](Cc2c[nH]c3ccccc23)C1=O)c1cccc(Cl)c1` (stereo partly drawn), in test [6], the IC50 stood at 100 nM.

Consider `O=C1CC2(CCN(CCC(CN3C(=O)N[C@H](c4ccccc4)C3=O)c3cccc(Cl)c3)CC2)c2ccccc21` (stereo partly drawn), for which the IC50 in test [6] turned out to be 606 nM.

In turn, `O=C1N[C@H](Cc2ccccc2)C(=O)N1CC(CCN1CCC2(CC1)C[S+]([O-])c1ccccc12)c1cccc(Cl)c1` (stereo partly drawn) displayed an inhibition in test [9] of 39%.

With `CC(CCN1CCC(c2ccccc2)CC1)(CN1C(=O)N[C@H](Cc2c[nH]c3ccccc23)C1=O)c1ccccc1` (stereo partly drawn), the inhibition in test [1] came to 80%.

With `CS(=O)(=O)N1CC2(CCN(CCC(CN3C(=O)N[C@H](Cc4ccccc4)C3=O)c3cccc(Cl)c3)CC2)c2ccccc21` (stereo partly drawn), in [1], the inhibition amounted to 55%.

Take `CCN(C(=O)OCc1ccccc1)C1CCN(CCC(CN2C(=O)N[C@H](Cc3c[nH]c4ccccc34)C2=O)c2ccccc2)CC1` (stereo partly drawn): the half-maximal inhibitory concentration (IC50) in test [3] was over 1000 nM; in test [4], over 1000 nM; in test [5], over 1000 nM; in test [6], 13 nM; in test [7], over 1000 nM; in test [8] it was over 1000 nM. Further, the 95% effect level in test [10] (IC95) was put at 25000 nM.

For `O=C1N[C@H](Cc2ccccc2)C(=O)N1CC(CCN1CCC2(CC1)CSc1ccccc12)c1cccc(Cl)c1` (stereo partly drawn), in test [9], the inhibition came out at 24%.

With `C=CCN(C(=O)OCc1ccccc1)C1CCN(CCC(CN2C(=O)N[C@H](Cc3c[nH]c4ccccc34)C2=O)c2cccc(Cl)c2)CC1` (stereo partly drawn), the concentration for half-maximal inhibition (IC50) is over 1000 nM in test [3]; over 1000 nM in test [4]; over 1000 nM in [5]; 3 nM in [6]; over 1000 nM in [7]; over 1000 nM in test [8]. For the same compound, the IC95 in test [10] came out at 12500 nM.

Turning to `C=CCN(C(=O)OCc1ccccc1)C1CCN(CCC(CN2C(=O)N[C@H](Cc3c[nH]c4ccccc34)C2=O)c2ccccc2)CC1` (stereo partly drawn), the IC50 in test [3] was over 1000 nM; in test [4], over 1000 nM; in test [5] it was over 1000 nM; in test [6], 7 nM; in [7], over 1000 nM; in [8], over 1000 nM. In addition, in test [10], the IC95 was over 3000 nM.

The compound `CN1C(=O)N(CC(CCN2CCC(c3ccccc3)CC2)c2cccc(Cl)c2)C(=O)[C@H]1Cc1ccccc1` (stereo partly drawn) returned an inhibition in test [1] of 52%.

`O=C1N[C@H](Cc2c[nH]c3ccccc23)C(=O)N1CC(CCN1CCC(c2ccccc2)CC1)c1cccc(Cl)c1` (single isomer, unassigned) yielded an IC50 in test [6] of 80 nM.

For `C=CCN(C(=O)OCc1ccccc1)C1CCN(CCC(C)(CN2C(=O)N[C@H](Cc3c[nH]c4ccccc34)C2=O)c2ccccc2)CC1` (stereo partly drawn), the 50% inhibitory concentration (IC50) in test [3] is over 1000 nM; in test [4], over 1000 nM; in test [5] it was over 1000 nM; in test [6], 5 nM; in [7], over 1000 nM; in test [8], over 1000 nM. In test [10], this compound showed a 95% effect concentration (IC95) of over 3000 nM.

With `Cn1cc(C[C@H]2NC(=O)N(CC(CCN3CCC(c4ccccc4)CC3)c3cccc(Cl)c3)C2=O)c2ccccc21` (stereo partly drawn), the inhibition in test [1] turned out to be 43%.

`O=C1CC2(CCN(CCC(CN3C(=O)N[C@@H](c4ccccc4)C3=O)c3cccc(Cl)c3)CC2)c2ccccc21` (stereo partly drawn) yielded an inhibition in [1] of 52%.

For the compound `O=C1N[C@H](Cc2c[nH]c3ccccc23)C(=O)N1CC(CCN1CCC(c2ccccc2)CC1)c1cccc(Cl)c1` (stereo in doubt), the concentration for half-maximal inhibition (IC50) in test [6] came to 25 nM.

Take `CCN(C(=O)OCc1ccccc1)C1CCN(CCC(C)(CN2C(=O)N[C@H](Cc3c[nH]c4ccccc34)C2=O)c2ccccc2)CC1` (stereo partly drawn): the IC50 in test [3] is over 1000 nM; in test [4] it was over 1000 nM; in test [5] it was over 1000 nM; in [6], 4 nM; in test [7], over 1000 nM; in [8], over 1000 nM. Moreover, the IC95 in [10] turned out to be 12500 nM.

In turn, `O=C1N[C@H](Cc2csc3ccccc23)C(=O)N1CC(CCN1CCC(c2ccccc2)CC1)c1cccc(Cl)c1` (stereo partly drawn) showed an inhibition in test [1] of 67%.

In turn, `O=C1N[C@H](Cc2c[nH]c3ccccc23)C(=O)N1CC(CCN1CCC(c2ccccc2)CC1)c1ccccc1` (stereo in doubt; 24) had an inhibition in test [1] of 71%.

As for `CCN(C(=O)OCc1ccccc1)C1CCN(CCC(CN2C(=O)N[C@H](Cc3c[nH]c4ccccc34)C2=O)c2cccc(Cl)c2)CC1` (stereo partly drawn), the IC50 was over 1000 nM in [3]; over 1000 nM in [4]; over 1000 nM in test [5]; 2 nM in [6]; over 1000 nM in [7]; over 1000 nM in [8]. This compound also displayed an IC95 in [10] of 12500 nM.

On to `O=C1N[C@H](Cc2ccccc2)C(=O)N1CC(CCN1CCC(c2ccccc2)CC1)c1cccc(Cl)c1` (stereo partly drawn), for which the IC50 in test [6] was 250 nM.
